In article PMC3112382, “Crystal structures of a halophilic archaeal malate synthase from Haloferax volcanii and comparisons with isoforms A and G” (BMC Structural Biology, 2011):

Columns and labels:
[1] = target: T1, H. volcanii malate synthase isoform H (hvMSH) (Haloferax volcanii, UniProt D4GTL2); assay: X-ray crystal structure, […] Å; assay type: binding; conditions: ~0.15 M acetyl-CoA, ~70 mM pyruvate, 50 mM MgCl2 soak, active site
T1 construct: gene aceB; full-length native enzyme, purified from H. volcanii grown on acetate, no tag; trimer/hexamer equilibrium
T1 sequence (D4GTL2 1-433): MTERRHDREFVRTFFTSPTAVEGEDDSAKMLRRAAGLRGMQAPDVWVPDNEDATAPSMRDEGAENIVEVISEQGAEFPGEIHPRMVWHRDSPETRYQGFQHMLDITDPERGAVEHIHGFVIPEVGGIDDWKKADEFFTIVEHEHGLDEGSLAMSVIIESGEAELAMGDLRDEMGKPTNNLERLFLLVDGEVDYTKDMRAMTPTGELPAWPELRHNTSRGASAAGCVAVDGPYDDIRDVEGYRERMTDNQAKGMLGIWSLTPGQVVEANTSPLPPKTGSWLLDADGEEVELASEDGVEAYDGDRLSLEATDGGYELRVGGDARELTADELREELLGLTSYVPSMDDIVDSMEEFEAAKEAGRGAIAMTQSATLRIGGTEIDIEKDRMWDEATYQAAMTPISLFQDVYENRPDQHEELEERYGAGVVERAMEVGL

[2] = target: T1, H. volcanii malate synthase isoform H (hvMSH); assay: X-ray crystal structure, […] Å; assay type: binding; conditions: ~0.1 M glyoxylate and ~0.1 M MgCl2 soak; active site, on Mg2+; second, weak glyoxylate at acetyl-CoA thioester position; low-occupancy complex (3 mM glyoxylate) is 3PUG

CC(=O)SCCNC(=O)CCNC(=O)[C@H](O)C(C)(C)COP(=O)(O)OP(=O)(O)OC[C@H]1O[C@@H](n2cnc3c(N)ncnc32)[C@H](O)[C@@H]1OP(=O)(O)O [acetyl-coenzyme A]
X-ray crystal structure, 1.95 Å ([1]; ternary complex with pyruvate): one molecule of pyruvate, one molecule of acetyl-CoA, one magnesium ion

O=CC(=O)O [glyoxylate]
X-ray crystal structure, 2.51 Å [2]: One glyoxylate molecule is bound to the Mg2+ at the active site

CC(=O)C(=O)O [pyruvate]
X-ray crystal structure, 1.95 Å ([1]; ternary complex with acetyl-CoA, glyoxylate position): one molecule of pyruvate, one molecule of acetyl-CoA, one magnesium ion
